Source: ChEMBL document CHEMBL1201862, “PubChem BioAssay data set” (2004)
Calls of active or inactive are those of the source.

Assays:
[1] = target: T1, Polyadenylate-binding protein 1 (Homo sapiens, UniProt P11940); experiment: MLLE binding blockers, Cy5 peptide tracer – biochemical, fluorescence polarization, Cy5-PAM2 peptide, secondary, miRNA deadenylation inhibitor project, dose response (AID 602260); format: functional; conditions: read-out: IC50_Mean
[2] = target: T1, Polyadenylate-binding protein 1; experiment: MLLE domain peptide-binding blockers, IC50 – biochemical, fluorescence polarization, FITC-PAM2 peptide, dose response (AID 602259); format: functional; conditions: read-out: IC50_Mean
cells [3] = format: functional, cell-based
cells [4] = format: functional, cell-based; remark: listed apart in the source
[5] = target: T2, Rac GTPase-activating protein 1 (Homo sapiens, UniProt Q9H0H5); experiment: blockers of MgcRacGAP-driven Rac1 GTP hydrolysis – biochemical, ADP Hunter fluorescence, primary and confirmatory, confirmation (AID 624330); format: functional
T2 sequence (Q9H0H5 whole entry): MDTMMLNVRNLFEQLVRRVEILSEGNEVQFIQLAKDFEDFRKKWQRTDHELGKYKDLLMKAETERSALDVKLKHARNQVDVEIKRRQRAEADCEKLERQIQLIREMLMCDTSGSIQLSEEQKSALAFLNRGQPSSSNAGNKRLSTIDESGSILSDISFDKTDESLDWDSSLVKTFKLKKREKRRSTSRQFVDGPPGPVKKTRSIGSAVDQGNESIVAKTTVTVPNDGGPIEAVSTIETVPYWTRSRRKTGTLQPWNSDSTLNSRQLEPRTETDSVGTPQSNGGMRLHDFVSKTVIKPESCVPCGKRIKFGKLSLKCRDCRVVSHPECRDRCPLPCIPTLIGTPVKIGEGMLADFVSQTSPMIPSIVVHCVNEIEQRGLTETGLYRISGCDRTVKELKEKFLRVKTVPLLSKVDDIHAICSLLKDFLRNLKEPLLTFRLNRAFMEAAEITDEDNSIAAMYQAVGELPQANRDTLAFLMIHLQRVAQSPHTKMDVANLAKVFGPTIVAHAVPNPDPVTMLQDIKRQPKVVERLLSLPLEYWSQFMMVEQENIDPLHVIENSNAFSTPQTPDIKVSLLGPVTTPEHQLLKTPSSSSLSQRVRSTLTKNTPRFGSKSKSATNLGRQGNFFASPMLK

[6] = target: Induced myeloid leukemia cell differentiation protein Mcl-1 (Homo sapiens, UniProt Q07820); format: functional
Sequence of Induced myeloid leukemia cell differentiation protein Mcl-1 (Q07820 whole entry, the tested form may be a part): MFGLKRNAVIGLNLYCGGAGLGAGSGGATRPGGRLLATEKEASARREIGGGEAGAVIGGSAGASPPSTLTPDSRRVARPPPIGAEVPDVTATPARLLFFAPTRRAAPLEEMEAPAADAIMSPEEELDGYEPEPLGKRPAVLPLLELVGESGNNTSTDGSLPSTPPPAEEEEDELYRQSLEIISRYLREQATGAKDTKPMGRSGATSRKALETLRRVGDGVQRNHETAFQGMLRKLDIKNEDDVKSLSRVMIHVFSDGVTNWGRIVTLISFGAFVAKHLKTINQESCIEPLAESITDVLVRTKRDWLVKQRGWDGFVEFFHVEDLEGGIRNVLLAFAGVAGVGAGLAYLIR

[7] = target: T3, RNA-binding protein pos-1 (Caenorhabditis elegans, UniProt G5EF15); experiment: disruptors of C. elegans POS-1 RNA interaction – biochemical, fluorescence polarization, dose response (AID 1964);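 also: purified POS-1 fused to maltose binding protein made in E. coli; potency of compounds blocking POS-1 binding to fluorescent RNA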
T3 sequence (G5EF15 whole entry): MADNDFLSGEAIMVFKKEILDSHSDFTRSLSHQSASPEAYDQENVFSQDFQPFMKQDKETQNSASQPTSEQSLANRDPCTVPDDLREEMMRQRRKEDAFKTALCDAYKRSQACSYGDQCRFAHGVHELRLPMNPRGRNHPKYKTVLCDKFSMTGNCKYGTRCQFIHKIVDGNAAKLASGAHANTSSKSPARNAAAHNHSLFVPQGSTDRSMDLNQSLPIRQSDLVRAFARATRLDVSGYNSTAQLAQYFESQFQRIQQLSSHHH

[8] = target: T4, Zinc finger protein mex-5 (Caenorhabditis elegans, UniProt Q9XUB2); experiment: potency of MEX-5 RNA-binding blockers – biochemical, C. elegans, fluorescence polarization, dose response (AID 1960)
T4 sequence (Q9XUB2 whole entry): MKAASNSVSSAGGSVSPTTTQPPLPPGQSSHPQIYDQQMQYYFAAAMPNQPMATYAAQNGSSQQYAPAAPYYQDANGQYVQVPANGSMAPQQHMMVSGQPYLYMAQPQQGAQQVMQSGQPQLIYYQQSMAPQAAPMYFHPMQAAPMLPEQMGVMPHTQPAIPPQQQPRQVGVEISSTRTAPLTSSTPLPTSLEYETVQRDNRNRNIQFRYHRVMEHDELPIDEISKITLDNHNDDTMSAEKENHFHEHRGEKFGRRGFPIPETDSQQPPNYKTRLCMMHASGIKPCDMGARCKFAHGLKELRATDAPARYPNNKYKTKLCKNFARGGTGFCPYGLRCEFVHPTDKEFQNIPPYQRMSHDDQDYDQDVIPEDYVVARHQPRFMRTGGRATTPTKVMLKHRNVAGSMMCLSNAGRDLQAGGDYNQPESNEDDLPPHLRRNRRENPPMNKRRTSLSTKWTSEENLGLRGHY

[9] = target: T5, Replicative DNA helicase DnaB (Mycobacterium tuberculosis, UniProt P9WMR3); experiment: DnaB intein splicing inhibitors, dose response, biochemical, cell-free fluorescence (AID 449749); format: functional
T5 sequence (P9WMR3 whole entry): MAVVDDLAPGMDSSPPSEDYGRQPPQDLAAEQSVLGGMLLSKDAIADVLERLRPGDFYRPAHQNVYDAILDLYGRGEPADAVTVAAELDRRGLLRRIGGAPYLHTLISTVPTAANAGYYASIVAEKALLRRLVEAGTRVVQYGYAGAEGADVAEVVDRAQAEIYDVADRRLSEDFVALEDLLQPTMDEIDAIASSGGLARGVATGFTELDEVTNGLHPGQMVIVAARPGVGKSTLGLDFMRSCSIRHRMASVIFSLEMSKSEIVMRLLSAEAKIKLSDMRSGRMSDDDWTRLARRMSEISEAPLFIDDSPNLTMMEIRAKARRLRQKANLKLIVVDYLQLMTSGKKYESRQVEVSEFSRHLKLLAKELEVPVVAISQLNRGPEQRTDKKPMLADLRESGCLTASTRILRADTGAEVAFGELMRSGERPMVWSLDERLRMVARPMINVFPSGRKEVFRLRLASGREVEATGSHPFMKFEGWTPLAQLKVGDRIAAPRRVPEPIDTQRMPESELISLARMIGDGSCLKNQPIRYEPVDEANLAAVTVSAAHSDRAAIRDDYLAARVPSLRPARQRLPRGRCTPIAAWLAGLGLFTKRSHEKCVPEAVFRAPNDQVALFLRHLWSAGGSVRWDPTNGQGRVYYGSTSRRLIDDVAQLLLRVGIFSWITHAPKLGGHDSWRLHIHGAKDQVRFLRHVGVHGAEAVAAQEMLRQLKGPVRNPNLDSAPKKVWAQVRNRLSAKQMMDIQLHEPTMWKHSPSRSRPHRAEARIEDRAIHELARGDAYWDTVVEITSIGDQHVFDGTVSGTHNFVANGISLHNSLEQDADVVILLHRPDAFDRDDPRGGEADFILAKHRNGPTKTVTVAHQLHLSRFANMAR

Protein RecA = target: T6, Protein RecA (Mycobacterium tuberculosis, UniProt P9WHJ3); experiment: Fluorescence Cell-Free Homogeneous Dose Retest to Identify Inhibitors of RecA-Intein Splicing Activity. [Related pubchem assays (depositor defined):AID2097, AID2223, AID489010, AID492950]; format: functional
T6 sequence (P9WHJ3 whole entry): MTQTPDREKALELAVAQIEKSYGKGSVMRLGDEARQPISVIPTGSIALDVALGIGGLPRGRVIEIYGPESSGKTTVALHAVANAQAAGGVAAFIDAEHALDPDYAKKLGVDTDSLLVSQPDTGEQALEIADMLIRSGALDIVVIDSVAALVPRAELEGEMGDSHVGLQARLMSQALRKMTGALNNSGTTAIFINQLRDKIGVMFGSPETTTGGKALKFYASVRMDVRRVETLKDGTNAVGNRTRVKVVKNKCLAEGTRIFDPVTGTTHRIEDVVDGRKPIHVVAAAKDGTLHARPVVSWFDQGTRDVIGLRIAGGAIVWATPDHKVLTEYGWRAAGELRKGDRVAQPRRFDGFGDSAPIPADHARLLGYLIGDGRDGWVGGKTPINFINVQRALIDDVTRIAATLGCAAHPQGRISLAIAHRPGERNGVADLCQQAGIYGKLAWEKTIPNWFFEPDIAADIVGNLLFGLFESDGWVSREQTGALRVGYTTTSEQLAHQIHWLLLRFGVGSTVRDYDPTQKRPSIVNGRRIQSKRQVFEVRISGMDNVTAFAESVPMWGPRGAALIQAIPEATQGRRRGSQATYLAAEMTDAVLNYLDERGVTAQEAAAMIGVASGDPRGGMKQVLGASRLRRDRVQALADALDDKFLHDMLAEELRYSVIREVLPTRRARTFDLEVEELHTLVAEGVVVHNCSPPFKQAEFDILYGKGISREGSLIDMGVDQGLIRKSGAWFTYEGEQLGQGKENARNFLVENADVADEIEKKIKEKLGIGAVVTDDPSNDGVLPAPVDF

[10] = target: Luciferin 4-monooxygenase (Photinus pyralis, UniProt P08659); experiment: inhibition of purified Photinus pyralis luciferase – biochemical, luminescence, dose response (AID 1891)
Sequence of Luciferin 4-monooxygenase (P08659 whole entry): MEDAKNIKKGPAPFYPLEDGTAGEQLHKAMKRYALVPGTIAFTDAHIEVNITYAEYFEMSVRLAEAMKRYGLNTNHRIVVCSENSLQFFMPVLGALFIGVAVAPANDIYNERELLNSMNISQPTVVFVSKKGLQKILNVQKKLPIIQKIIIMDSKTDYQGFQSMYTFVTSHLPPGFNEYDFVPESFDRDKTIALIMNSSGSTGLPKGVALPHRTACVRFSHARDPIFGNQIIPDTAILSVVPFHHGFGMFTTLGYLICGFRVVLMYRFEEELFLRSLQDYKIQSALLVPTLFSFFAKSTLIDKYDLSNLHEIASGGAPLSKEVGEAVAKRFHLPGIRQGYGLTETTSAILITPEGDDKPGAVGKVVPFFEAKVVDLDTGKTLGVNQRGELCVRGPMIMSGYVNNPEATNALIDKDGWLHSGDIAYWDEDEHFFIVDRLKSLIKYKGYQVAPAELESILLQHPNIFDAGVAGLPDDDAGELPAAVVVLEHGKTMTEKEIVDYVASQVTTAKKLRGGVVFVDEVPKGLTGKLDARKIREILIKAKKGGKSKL

[11] = Luminescence Cell-Based Dose Confirmation HTS to Identify Inhibitors of Platelet Dense Granule Release. [Related pubchem assays: 1663 (Primary HTS), 1678 (Summary of Project)]; format: functional
Protein skinhead-1 = target: T7, Protein skinhead-1 (Caenorhabditis elegans, UniProt P34707); format: functional
T7 sequence (P34707 whole entry): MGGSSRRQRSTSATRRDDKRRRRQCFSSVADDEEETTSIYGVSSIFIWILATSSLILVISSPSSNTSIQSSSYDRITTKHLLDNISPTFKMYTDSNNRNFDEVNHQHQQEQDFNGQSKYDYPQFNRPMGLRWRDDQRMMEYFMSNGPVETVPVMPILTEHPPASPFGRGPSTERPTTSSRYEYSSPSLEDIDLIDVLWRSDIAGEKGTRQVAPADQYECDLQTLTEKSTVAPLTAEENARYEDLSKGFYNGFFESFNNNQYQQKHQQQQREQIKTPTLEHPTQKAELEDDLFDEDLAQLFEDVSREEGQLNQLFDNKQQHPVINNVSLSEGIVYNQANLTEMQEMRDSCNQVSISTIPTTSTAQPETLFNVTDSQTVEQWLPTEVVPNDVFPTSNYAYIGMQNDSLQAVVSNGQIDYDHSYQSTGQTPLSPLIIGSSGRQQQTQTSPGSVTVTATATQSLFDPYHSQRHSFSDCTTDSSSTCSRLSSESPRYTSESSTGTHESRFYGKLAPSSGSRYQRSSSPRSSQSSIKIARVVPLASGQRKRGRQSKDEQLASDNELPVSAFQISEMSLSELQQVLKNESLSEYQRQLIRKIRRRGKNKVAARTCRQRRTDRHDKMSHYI

Large T antigen = Large T antigen (Simian virus 40, UniProt P03070); format: functional, Betapolyomavirus macacae;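 also: Confirmatory-stage PubChem screen for compounds that inhibit SV40 T antigen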
Sequence of Large T antigen (P03070 whole entry): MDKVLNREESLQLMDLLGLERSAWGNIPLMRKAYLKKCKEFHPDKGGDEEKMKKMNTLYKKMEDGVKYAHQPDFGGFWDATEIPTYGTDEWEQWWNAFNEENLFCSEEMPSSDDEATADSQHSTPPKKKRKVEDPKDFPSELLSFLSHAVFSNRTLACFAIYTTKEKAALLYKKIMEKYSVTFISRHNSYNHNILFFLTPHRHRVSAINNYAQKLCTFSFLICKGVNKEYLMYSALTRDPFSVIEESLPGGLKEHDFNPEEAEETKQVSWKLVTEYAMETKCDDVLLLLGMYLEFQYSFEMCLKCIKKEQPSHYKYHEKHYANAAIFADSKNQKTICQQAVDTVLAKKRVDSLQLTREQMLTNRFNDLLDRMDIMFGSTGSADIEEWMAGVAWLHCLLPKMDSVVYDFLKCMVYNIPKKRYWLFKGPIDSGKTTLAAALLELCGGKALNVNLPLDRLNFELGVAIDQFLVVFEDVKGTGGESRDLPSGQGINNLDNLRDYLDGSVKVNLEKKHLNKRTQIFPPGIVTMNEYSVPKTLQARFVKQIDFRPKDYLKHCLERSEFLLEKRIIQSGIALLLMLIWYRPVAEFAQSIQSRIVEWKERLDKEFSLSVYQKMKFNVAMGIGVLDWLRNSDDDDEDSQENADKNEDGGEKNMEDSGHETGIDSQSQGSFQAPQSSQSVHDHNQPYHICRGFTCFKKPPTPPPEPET

T1 sequence (P11940 whole entry, the tested form may be a part): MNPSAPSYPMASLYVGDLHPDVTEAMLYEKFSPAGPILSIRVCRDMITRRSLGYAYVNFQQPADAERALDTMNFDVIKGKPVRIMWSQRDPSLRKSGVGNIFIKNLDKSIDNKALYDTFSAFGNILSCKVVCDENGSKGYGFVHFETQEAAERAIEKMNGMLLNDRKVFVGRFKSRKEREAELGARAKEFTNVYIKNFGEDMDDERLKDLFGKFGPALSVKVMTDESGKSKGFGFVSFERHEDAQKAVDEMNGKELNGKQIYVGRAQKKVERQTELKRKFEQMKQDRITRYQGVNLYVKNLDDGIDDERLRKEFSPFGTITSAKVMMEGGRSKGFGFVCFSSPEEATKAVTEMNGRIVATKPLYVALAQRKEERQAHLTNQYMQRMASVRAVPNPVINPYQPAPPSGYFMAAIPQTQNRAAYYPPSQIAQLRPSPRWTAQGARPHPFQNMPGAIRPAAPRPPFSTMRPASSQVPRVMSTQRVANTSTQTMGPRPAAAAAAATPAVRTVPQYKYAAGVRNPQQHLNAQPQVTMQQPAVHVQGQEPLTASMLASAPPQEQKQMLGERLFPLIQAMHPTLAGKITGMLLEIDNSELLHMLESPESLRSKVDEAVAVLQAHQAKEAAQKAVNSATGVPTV

## CC(=O)C(Sc1nccc(-c2cccs2)n1)C(C)=O
[1]
  IC50: > 66 µM (inactive)
[2]
  IC50: > 66 µM (inactive)

## Cc1ccc(SC2CC(=O)N(c3ccc4c(c3)OCCO4)C2=O)cc1 (centres undefined)
[1]
  IC50: > 66 µM (inactive)
[2]
  IC50: > 66 µM (inactive)

## O=[N+]([O-])c1ccc(-c2nc(=S)c3c(o2)CCCC3)cc1
[1]
  IC50: > 66 µM (inactive)
[2]
  IC50: > 66 µM (inactive)

## CCN1CCN(c2ccc([N+](=O)[O-])cc2C=C2C(=O)NC(=O)NC2=O)CC1
Cells [3]
  EC50: > 350 µM (not active)
Cells [4]
  EC50: > 350 µM (not active)

## COc1ccccc1CNCC(=O)Nc1ccc(N(C)C)cc1
[5]
  IC50: 32.1 µM (active)

## CCN=c1ccc(Br)cc(C(=O)/C=C/c2ccc(Cl)cc2)c1O
[6]
  IC50: 3.55 µM (active)

## Cc1ccc(O)c(NC(=O)c2ccc3c(c2)C(=O)N(Cc2ccco2)C3=O)c1
Cells [3]
  EC50: > 350 µM (not active)
Cells [4]
  EC50: 52.2 µM (active)

## CCN1C(=O)/C(=C/c2ccc3c(c2)CCN3CCCCl)C(=O)NC1=S
[6]
  IC50: 3.4 µM (active)

## CCN(CC)C(=O)CSc1nnc2nnc3cc(Cl)ccc3n12
[7]
  EC50: 23.2 µM (active)
[1]
  IC50: > 66 µM (inactive)
[2]
  IC50: 34.4 µM (inactive)
[8]
  EC50: 18.5 µM (active)
[9]
  AC50: > 380 µM (inactive)
Protein RecA
  EC50: 0.499 µM (active)

## COc1cccc(N2CC(C(=O)Oc3ccc4ccccc4c3)CC2=O)c1 (centres undefined)
[5]
  IC50: 16.1 µM (active)

## Cc1ccc(NC(=O)CC2SC(=O)N(c3ccccc3)C2=O)cc1 (centres undefined)
[1]
  IC50: > 66 µM (inactive)
[2]
  IC50: > 66 µM (inactive)
[10]
  EC50: > 112 µM (not active)
[11]
  EC50: 109 µM (active)

## Cc1cc(NC(=O)CN2CCN(C)CC2)no1
[5]
  IC50: 157 µM (active)

## Cc1ccc(S(=O)(=O)Nc2nsc(N)n2)cc1
[5]
  IC50: 82.8 µM (active)

## C/C(=C\C(=O)OCC(=O)NCc1ccccc1)C(=O)OCC(=O)NCc1ccccc1
Cells [3]
  EC50: > 350 µM (not active)
Cells [4]
  EC50: > 350 µM (not active)

## CSCc1nc2sc(C(=O)Nc3nc(C)cs3)c(C)c2c(=O)[nH]1
[6]
  IC50: 3.89 µM (active)

## CCOC(=O)CN(C(=O)COc1nc(C)cc(C)c1C#N)c1cccc(Cl)c1
Cells [3]
  EC50: > 350 µM (not active)
Cells [4]
  EC50: > 350 µM (not active)

## Cc1cc2cc(CNC(=O)Cc3ccc([N+](=O)[O-])cc3)ccc2n1C
[1]
  IC50: > 66 µM (inactive)
Protein skinhead-1
  IC50: > 100 µM (inactive)
[2]
  IC50: > 66 µM (inactive)

## Cc1cc2cc(CNC(=O)c3cccs3)ccc2n1C
[1]
  IC50: > 66 µM (inactive)
[2]
  IC50: > 66 µM (inactive)

## O=C1NC(=O)C(=Cc2cccs2)C(=O)N1
[5]
  IC50: 188 µM (active)

## O=C(N/N=C/c1ccc(O)c(O)c1)c1ccc(CSc2cccc3cccnc23)cc1
[6]
  IC50: 4.61 µM (active)
Large T antigen
  IC50: 5.43 µM (active)
